Test results taken from publication PMC3955162 (Nature neuroscience, 2013).
Numbering of substitutions follows the chain as printed. Each block holds one molecule with its values, some of them ahead of it.

Key:
ACR-23(I301N) = biological target: T1, ACR-23(I301N) (Caenorhabditis elegans, UniProt G5EG88, I301N); experiment: two-electrode voltage clamp in Xenopus oocytes expressing ACR-23; format: cell-based
T1 sequence (G5EG88 20-545 I301N): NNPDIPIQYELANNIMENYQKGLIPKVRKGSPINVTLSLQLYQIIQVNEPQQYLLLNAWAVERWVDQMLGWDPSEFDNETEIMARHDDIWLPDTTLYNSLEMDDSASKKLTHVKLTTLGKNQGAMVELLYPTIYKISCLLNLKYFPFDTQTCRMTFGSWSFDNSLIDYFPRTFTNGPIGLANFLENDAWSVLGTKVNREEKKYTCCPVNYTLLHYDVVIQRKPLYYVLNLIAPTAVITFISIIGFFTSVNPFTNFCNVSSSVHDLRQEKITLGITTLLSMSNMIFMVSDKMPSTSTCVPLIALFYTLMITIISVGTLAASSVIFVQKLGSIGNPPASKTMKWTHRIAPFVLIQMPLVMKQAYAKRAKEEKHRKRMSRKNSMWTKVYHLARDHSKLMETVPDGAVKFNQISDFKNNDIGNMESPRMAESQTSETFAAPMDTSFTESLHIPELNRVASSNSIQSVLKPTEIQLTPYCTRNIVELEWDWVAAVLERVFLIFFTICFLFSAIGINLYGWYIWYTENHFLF

ACR-23 [1] = biological target: T2, ACR-23 (Caenorhabditis elegans, UniProt G5EG88); experiment: as above; format: cell-based
T2 sequence (G5EG88 20-545): T1 sequence (G5EG88 20-545 I301N) with N282I

ACR-23 [2] = biological target: T2, ACR-23; experiment: two-electrode voltage clamp in Xenopus oocytes; format: cell-based
[3] = substrate: C[N+](C)(C)CC(=O)O; experiment: cells, lysate or membranes; conditions: Na+ and Cl−

Molecule: C[N+](C)(C)CC(=O)O [betaine, N, N, N-trimethylglycine]
EC50 (ACR-23(I301N)): 166 µM | EC50 (ACR-23 [1]): 1400 µM

two-electrode voltage clamp in Xenopus oocytes; potentiation of 1 mM betaine cur (ACR-23 [2]): 300 pM
Molecule: C[C@](C#N)(COc1cc(C#N)ccc1C(F)(F)F)NC(=O)c1ccc(SC(F)(F)F)cc1 [monepantel]

B1: SNF-3 (Caenorhabditis elegans) (protein)
chain: MGTSEHVPLPTDEAKAKELEQSQHSEEPDRGQWTGKFDFLMSMVAYAVGLGNVWRFPYLCYKNGGGSFLVVYMIFFCLAAVPIFLMEVTVGQYLQKGAMEMWLMCPLFRGVGIGNVVIAFMCIAYFCVIVAWAMFYMISSIAWVFPWETCNNYWNDATCVTGKENFTELARIKALVASAGGHTQTSVEQFWEKRVLHDTGDISEFGGIQWELFFIMAAAWLIVYFALWKGITQARKFVYFCALFPYVLIFILLIRGLTLEGAGTGIYFYLKPNATRLLDTAVWKDAGTQVFYSYGVGFGALIALGSHNKFNHNCFKDAITMCFINGCTSITAGFAVFSILGYMSHVAQKDISEIVKPGVGLAFLAYPEVASNLPMKQVFAVLFFLMITILGLDSQVCMMEGLFTALEDAFPILRKYKKQSLGIFCLFFFCIGIPMVTHSGSHWLTLFDAYGASGYALLFVVFFEVVGLAYGFGAHNIRKALHEMIGVTLPKGIEYVWKFCAPATSLVLFVFCVVYYHPVKYPDGKDFPFWANAFGWFLSSCSMVVIPGYAIYYLFFTNKHLTLKERVRKGLNLDGSFESPAKKNLVNNAEELKFIESSSQ
Km [3]: 320 ± 50 µM
